# Legend:
# [1] = system: MDA-MB-231 (human adenocarcinoma mammary gland); assay: WST-1 proliferation assay, MDA-MB-231; assay type: cell-based; conditions: MDA-MB-231 cells, 72 h exposure; for IC50: Homo sapiens, MDA-MB-231, 72 h, read-out: Antiproliferative activity IC50 MDA-MB-231
# Method: (§1) Compounds were evaluated for their anticancer activity using three cultured cell lines: SNB-19 (human glioblastoma, DSMZ - German Collection of Microorganisms and Cell Cultures, Braunschweig, Germany), C-32 (human amelanotic melanoma, ATCC-American Type Culture Collection, Manassas, VA, USA), MDA-MB-231 (human adenocarcinoma mammary gland, ATCC, Manassas, VA, USA), and HFF-1 (human fibroblast cell line, ATCC, Manassas, VA, USA). The cultured cells were kept at 37 °C and 5% CO2. The cells were seeded (1 × 10^4 cells/well/100 μL DMEM supplemented with 10% FCS and streptomycin and penicillin) using 96-well plates (Corning). The cells were counted in a hemocytometer (Burker’s chamber) using a phase contrast Olympus IX50 microscope equipped with Sony SSC-DC58 AP camera and Olympus DP10 digital camera.
# (§2) The antiproliferative effect of the compounds obtained from both the cancer and the normal cells was determined using the Cell Proliferation Reagent WST-1 assay (Roche Diagnostics, Mannheim, Germany). This colorimetric assay is based on the viable cell’s ability to cause the bright red-colored stable tetrazolium salt (2-(4-iodophenyl)-3-(4-nitrophenyl)-5-(2,4-disulfophenyl)-2H-tetrazolium, monosodium salt) to cleave to the dark red soluble formazan by cellular enzymes. An expansion in the number of viable cells results in an increase in the overall activity of mitochondrial dehydrogenases in the sample. An increase in the amount of formazan dye formed correlates to the number of metabolically active cells in the culture. The formazan dye produced by metabolically active cells is quantified by a scanning ELISA reader that measures the absorbance of the dye solution at appropriate wavelengths. The examined cells were exposed to the tested compounds for 72 h at various concentrations between 0.1 and 100 μg/mL (prepared initially at a concentration of 1 mg/mL in DMSO). The control was performed in order to check that DMSO has no effect on the cells at the concentration used. The cells were incubated with WST-1 (10 μL) for 1 h and the absorbance of the samples was measured against a background control at 450 nm using a microplate reader with a reference wavelength at 600 nm. The results are expressed as the means of at least two independent experiments performed in triplicate. […] The IC50 values (a concentration of a compound that is required for 50% inhibition) were calculated from the dose–response relationship with respect to control.
# [2] = system: SNB-19 (human glioblastoma); assay: WST-1 proliferation assay, SNB-19; assay type: cell-based; conditions: SNB-19 cells, 72 h exposure; for IC50: Homo sapiens, SNB-19, 72 h, read-out: Antiproliferative activity IC50 SNB-19
# Method: as §1, §2
# [3] = system: C-32 (human amelanotic melanoma); assay: WST-1 proliferation assay, C-32; assay type: cell-based; conditions: C-32 cells, 72 h exposure; for IC50: Homo sapiens, C32, 72 h, read-out: Antiproliferative activity IC50 C-32
# Method: as §1, §2
# [4] = system: HFF-1 (human fibroblast cell line); assay: WST-1 proliferation assay, normal fibroblasts HFF-1; assay type: cell-based; conditions: for IC50: read-out: Antiproliferative activity IC50 HFF-1
# Method: as §1
# as §2, with “The control was performed in order to check that DMSO has no effect on the cells at the concentration used.” left out
# [5] = normal human fibroblasts HFF-1, 72 h exposure, WST-1
Antiproliferative activity IC50 MDA-MB-231 [1] [µg/mL],Antiproliferative activity IC50 SNB-19 [2] [µg/mL],Antiproliferative activity IC50 C-32 [3] [µg/mL],IC50 [1] [µg/mL],IC50 [2] [µg/mL],IC50 [3] [µg/mL],melting point [°C],SMILES,"Antiproliferative activity IC50 HFF-1 [4, 5] [µg/mL]","IC50 [4, 5] [µg/mL]","cytotoxicity on the normal human fibroblasts (HFF-1), in words [4]"
–,–,–,33.4,28.8,21,122 to 124,"Cn1cnc2nc(Cl)nc(SCC#CCN3CCCCC3)c21 [Compound 2a, 2-Chloro-6-(4-N-piperidinylbut-2-ynylthio)-7-methylpurine]",–,35.4,–
–,–,–,66.3,35.4,125,168 to 169,"Cn1cnc2nc(Cl)nc(SCC#CCN3CCOCC3)c21 [Compound 2b, 2-Chloro-6-(4-N-morpholinylbut-2-ynylthio)-7-methylpurine]",–,20.1,–
–,–,–,48.1,17.4,11.9,117 to 118,"CCN(CC)CC#CCSc1nc(Cl)nc2ncn(C)c12 [Compound 2c, 2-Chloro-6-(4-diethylaminobut-2-ynylthio)-7-methylpurine]",–,8.65,–
–,–,–,–,15,–,162 to 164,"C#CCSc1nc(SCC#C)c2c(ncn2C)n1 [Compound 4, 2,6-di(prop-2-ynylthio)-7-methylpurine]",–,10,relatively weak cytotoxicity
–,–,–,19.9,19.4,6.81,97 to 99,"Cn1cnc2nc(SCC#CCN3CCCC3)nc(SCC#CCN3CCCC3)c21 [Compound 5a, 2,6-Di(4-N-pyrrolidinylbut-2-ynylthio)-7-methylpurine]",–,10,–
–,–,–,7.35,4.64,6.39,130 to 132,"Cn1cnc2nc(SCC#CCN3CCCCC3)nc(SCC#CCN3CCCCC3)c21 [Compound 5b, 2,6-Di(4-N-piperidinylbut-2-ynylthio)-7-methylpurine]",–,3.98,–
–,–,–,50.8,21.5,0.35,121 to 123,"Cn1cnc2nc(SCC#CCN3CCOCC3)nc(SCC#CCN3CCOCC3)c21 [Compound 5c, 2,6-Di(4-N-morpholinylbut-2-ynylthio)-7-methylpurine]",–,0.37,–
–,–,–,38.5,48.9,23.9,77 to 79,"CCN(CC)CC#CCSc1nc(SCC#CCN(CC)CC)c2c(ncn2C)n1 [Compound 5d, 2,6-Di(4-diethylaminobut-2-ynylthio)-7-methylpurine]",–,5.95,–
169.34,191.10,103.46,> 100,> 100,> 100,252 to 253,"C#CCSc1nc2c(c(=O)[nH]c(=O)n2C)n1C [Compound 9, 8-(prop-2-ynylthio)-3,7-dimethylxanthine]",–,154,–
–,–,–,472,177,51.1,195 to 197,"Cn1c(SCC#CCN2CCCC2)nc2c1c(=O)[nH]c(=O)n2C [Compound 10a, 8-(4-N-pyrrolidinylbut-2-ynylthio)-3,7-dimethylxanthine]",–,34.3,–
–,–,–,364,166,355,223 to 225,"Cn1c(SCC#CCN2CCCCC2)nc2c1c(=O)[nH]c(=O)n2C [Compound 10b, 8-(4-N-piperidinylbut-2-ynylthio)-3,7-dimethylxanthine]",–,30.4,–
–,1.69,–,6.54,< 1.7,223,174 to 176,"Cn1c(SCC#CCN2CCOCC2)nc2c1c(=O)[nH]c(=O)n2C [Compound 10c, 8-(4-N-morpholinylbut-2-ynylthio)-3,7-dimethylxanthine]",–,5.87,–
–,1.48,–,68.1,< 1.7,26.4,186 to 188,"CCN(CC)CC#CCSc1nc2c(c(=O)[nH]c(=O)n2C)n1C [Compound 10d, 8-(4-diethylaminobut-2-ynylthio)-3,7-dimethylxanthine]",–,3.68,–
–,–,–,10,–,270,161 to 163,"C#CCSc1nc(Cl)nc2nc(SCC#C)n(C)c12 [Compound 14, 2-chloro-6,8-di(prop-2-ynylthio)-7-methylpurine]",–,20.1,relatively weak cytotoxicity
3.83,0.52,4.55,3.8 to 4.5,< 1,3.8 to 4.5,133 to 135,"Cn1c(SCC#CCN2CCCC2)nc2nc(Cl)nc(SCC#CCN3CCCC3)c21 [Compound 15a, 2-Chloro-6,8-di(4-N-pyrrolidinylbut-2-ynylthio)-7-methylpurine]",–,3.63,–
–,–,–,38.1,11.6,19.1,108 to 110,"Cn1c(SCC#CCN2CCCCC2)nc2nc(Cl)nc(SCC#CCN3CCCCC3)c21 [Compound 15b, 2-Chloro-6,8-di(4-N-piperidinylbut-2-ynylthio)-7-methylpurine]",–,5.5,–
–,–,–,74,26.1,–,112 to 113,"Cn1c(SCC#CCN2CCOCC2)nc2nc(Cl)nc(SCC#CCN3CCOCC3)c21 [Compound 15c, 2-Chloro-6,8-di(4-N-morpholinylbut-2-ynylthio)-7-methylpurine]",–,36.4,relatively weak cytotoxicity
–,2.91,5.33,10,2.9 to 5.3,2.9 to 5.3,88 to 90,"CCN(CC)CC#CCSc1nc(Cl)nc2nc(SCC#CCN(CC)CC)n(C)c12 [Compound 15d, 2-Chloro-6,8-di(diethylaminobut-2-ynylthio)-7-methylpurine]",–,1,cytotoxic

SMILES,Antiproliferative activity IC50 MDA-MB-231 [1] [µg/mL],Antiproliferative activity IC50 SNB-19 [2] [µg/mL],Antiproliferative activity IC50 C-32 [3] [µg/mL],IC50 [1] [µg/mL],IC50 [2] [µg/mL],IC50 [3] [µg/mL],melting point [°C],"Antiproliferative activity IC50 HFF-1 [4, 5] [µg/mL]","IC50 [4, 5] [µg/mL]","cytotoxicity on the normal human fibroblasts (HFF-1), in words [4]"
"N.N.[Cl][Pt][Cl] [Cisplatin, cisplatin, reference compound]",11.85,1.46,5.71,–,–,–,–,1.21,–,–

# — paper PMC5904222, “Synthesis and anticancer activity of multisubstituted purines and xanthines with one or two propynylthio and aminobutynylthio groups” (Medicinal Chemistry Research, 2018)
